# According to patent US10006089B2, “MCL-1 as a therapeutic target in SCFFBW7 deficient neoplasm” (Beth Israel Deaconess Medical Center, Inc., priority 2011, dated 2018):
# “Also recorded” adds a separate entry of the source. Where a SMILES comes first, the peptide text is derived from it. The star is where a group is joined. Cbz = O=C(OCc1ccccc1)*
# Tests used:
# Type in all cases: cell-based, human
# T-ALL cell lines [1] = test: Cell viability assay (CellTiter-Glo) of T-ALL cell lines; details: for sensitivity of Fbw7-deficient T-ALL cell lines compared with wild-type Fbw7 lines (cell viability): 0.5% FBS-containing medium, FIG. 13g; for sensitivity of Fbw7-deficient T-ALL cell lines (cell viability): 10% FBS-containing medium, FIG. 12a; for resistance of Fbw7-deficient T-ALL cell lines compared with wild-type Fbw7 lines to apoptotic stimuli (cell viability): FIG. 13c-f; for resistance after re-introduction of 3A-Mcl-1: FIG. 14e-f
# Description: (§1) Cell culture including synchronization and transfection has been described^6,28. Wild type and Fbw7−/− DLD1 cell lines were kind gifts from Dr. Bert Vogelstein. Murine T-ALL cell lines derived from Tall transgenic mice were kind gifts from Dr. Michele A. Kelliher. Human T-ALL cell lines were previously described^2. Loucy and CMLT1 T-ALL cell lines were obtained from Jon Aster. For various assays described below, T-ALL cells were cultured in either 0.5% FBS or 10% FBS-containing medium for sorafenib (Alexis Biochemicals) or ABT-737 (Symansis) treatment. In the case of combined treatment with both sorafenib and ABT-737, T-ALL cells were maintained in 10% FBS-containing medium. Lentiviral shRNA virus packaging, retrovirus packaging, and subsequent infections were performed as described previously^28. For cell viability assays, cells were plated at 10,000 per well in 96-well plates, and incubated with the appropriate medium containing sorafenib, ABT-737 or DMSO for 48 h. Assays were performed with CellTiter-Glo Luminescent Cell Viability Assay kit according to the manufacturer's instructions (Promega). For detection of apoptosis, cells treated with various drugs were stained with propidium iodide (Roche), or co-stained with Annexin V-PE and 7-amino-actinomycin D (Annexin V-PE Apoptosis Detection Kit I, BD Bioscience) according to the manufacturer's instructions. Stained cells were sorted with Dako-Cytomation MoFlos sorter (Dako) at the Dana-Farber Cancer Institute FACS core facility.
# T-ALL cell lines [2] = test: 7-AAD/Annexin V double-staining FACS analysis of apoptosis; details: 48 hours; for effect of sorafenib on ABT-737 sensitivity (apoptosis by FACS): sorafenib and/or ABT-737, 10% FBS
# Description: as §1
# Mcl-1 [3] = test: Protein degradation analysis of Myc-Mcl-1 in transfected 293T cells; details: 293T cells transfected with Myc-Mcl-1, HA-Fbw7, HA-GSK3, FIG. 9a
# Description: Cells were transfected with Myc-Mcl-1 along with HA-Fbw7, or Flag-β-TRCP1, and GFP as a negative control, in the presence or absence of HA-GSK3 and/or HA-ERK1. For half-life studies, cycloheximide (20 μg/ml, Sigma) was added to the media 40 h post-transfection. At various time points thereafter, cells were lysed and protein abundances were measured by immunoblot analysis.
# Mcl-1 [4] = test: Immunoblot analysis of Mcl-1 expression in T-ALL cell lines; details: 0.5% FBS-containing medium, FIG. 13h
# Description: Cells were lysed in EBC (50 mM Tris pH 8.0, 120 mM NaCl, 0.5% NP-40) buffer supplemented with protease inhibitors (Complete Mini, Roche) and phosphatase inhibitors (phosphatase inhibitor cocktail set I and II, Calbiochem). The protein concentrations of the lysates were measured using the Bio-Rad Bradford protein assay reagent on a Beckman Coulter DU-800 spectrophotometer. The lysates were then resolved by SDS-PAGE and immunoblotted with the indicated antibodies. For immunoprecipitation, 800 μg lysates were incubated with the appropriate antibody (1-2 μg) for 3-4 h at 4° C. followed by one-hour incubation with Protein-A Sepharose beads (GE Healthcare). Immuno-complexes were washed five times with NETN buffer (20 mM Tris, pH 8.0, 100 mM NaCl, 1 mM EDTA and 0.5% NP-40) before being resolved by SDS-PAGE and immunoblotted with the indicated antibodies. Quantification of the immunoblot band intensity was performed with Image J software.
compound,measurement,setting,value
CN(C)CC[C@H](CSc1ccccc1)Nc1ccc(S(=O)(=O)NC(=O)c2ccc(N3CCN(Cc4ccccc4-c4ccc(Cl)cc4)CC3)cc2)cc1[N+](=O)[O-] [ABT-737],sensitivity of Fbw7-deficient T-ALL cell lines compared with wild-type Fbw7 lines (cell viability),T-ALL cell lines [1]; 48 hours,resistant
same,sensitivity of Fbw7-deficient T-ALL cell lines (cell viability),T-ALL cell lines [1]; 48 hours,resistant
same,resistance after re-introduction of wild-type or 3A-Mcl-1,"T-ALL cell lines [1]; DND41 cells, 10% FBS, 48 hours, FIG. 14b",increase in resistance
same,ABT-737 sensitivity after re-introduction of wild-type Fbw7,"T-ALL cell lines [1]; Fbw7-deficient CMLT1 cells, 10% FBS, 48 hours, FIG. 14a",partially restored its sensitivity
same,ABT-737 sensitivity after depletion of endogenous Mcl-1,"T-ALL cell lines [1]; Fbw7-deficient T-ALL cell lines, shMcl-1, 10% FBS, 48 hours, FIG. 12c",restored ABT-737 sensitivity
same,ABT-737-induced apoptosis in Fbw7-deficient T-ALL cells,"T-ALL cell lines [2]; 10% FBS, FIG. 13j, also immunoblots of apoptotic biomarkers FIG. 12b",impaired
CC(C)C[C@@H](C=O)NC(=O)[C@H](CC(C)C)NC(=O)[C@H](CC(C)C)NC(=O)OCc1ccccc1 [MG132] (Cbz-Leu-Leu-Leu-aldehyde),effect on Fbw7/GSK3-mediated Mcl-1 destruction,Mcl-1 [3],blocked
COC(=O)Nc1nc2ccc(C(=O)c3cccs3)cc2[nH]1 [Nocodazole],resistance of Fbw7-deficient T-ALL cell lines compared with wild-type Fbw7 lines to apoptotic stimuli (cell viability),T-ALL cell lines [1],more resistant
CC(=O)O[C@H]1C(=O)[C@@]2(C)[C@H]([C@H](OC(=O)c3ccccc3)[C@]3(O)C[C@H](OC(=O)[C@H](O)[C@@H](NC(=O)c4ccccc4)c4ccccc4)C(C)=C1C3(C)C)[C@]1(OC(C)=O)CO[C@@H]1C[C@@H]2O [Taxol],resistance after re-introduction of 3A-Mcl-1,T-ALL cell lines [1]; DND41 cells,increase in resistance
same,resistance of Fbw7-deficient T-ALL cell lines compared with wild-type Fbw7 lines to apoptotic stimuli (cell viability),T-ALL cell lines [1],more resistant
CC[C@@]1(O)C(=O)OCc2c1cc1n(c2=O)Cc2cc3ccccc3nc2-1 [camptothecin],resistance after re-introduction of 3A-Mcl-1,T-ALL cell lines [1]; DND41 cells,increase in resistance
same,resistance of Fbw7-deficient T-ALL cell lines compared with wild-type Fbw7 lines to apoptotic stimuli (cell viability),T-ALL cell lines [1],more resistant
COc1cc([C@@H]2c3cc4c(cc3[C@@H](O[C@@H]3O[C@@H]5CO[C@@H](C)O[C@H]5[C@H](O)[C@H]3O)[C@H]3COC(=O)[C@H]23)OCO4)cc(OC)c1O [etoposide],resistance of Fbw7-deficient T-ALL cell lines compared with wild-type Fbw7 lines to apoptotic stimuli (cell viability),T-ALL cell lines [1],more resistant
same,sensitivity to induced apoptosis after re-introduction of wild-type Fbw7,"T-ALL cell lines [1]; Fbw7-deficient HPB-ALL and JRT3-T3.5 cells, FIG. 14d",partially restored their sensitivity
CNC(=O)c1cc(Oc2ccc(NC(=O)Nc3ccc(Cl)c(C(F)(F)F)c3)cc2)ccn1 [sorafenib],sensitivity of Fbw7-deficient T-ALL cell lines compared with wild-type Fbw7 lines (cell viability),T-ALL cell lines [1]; 48 hours,more sensitive
same,sensitivity of Fbw7-deficient T-ALL cell lines (cell viability),T-ALL cell lines [1]; 48 hours,more sensitive
same,effect of sorafenib on ABT-737 sensitivity (cell viability),"T-ALL cell lines [1]; Fbw7-deficient HPB-ALL cells, combined with ABT-737, 10% FBS, 48 hours, FIG. 14g",dose-dependent increase of ABT-737 sensitivity; also recorded: restored ABT-737 sensitivity
same,effect on Mcl-1 expression,Mcl-1 [4],effectively reduce Mcl-1 expression
same,effect of sorafenib on ABT-737 sensitivity (apoptosis by FACS),"T-ALL cell lines [2]; Fbw7-deficient CMLT1 and JRT3-T3.5 cells, FIG. 14h",restored ABT-737 sensitivity
same,effect of sorafenib on ABT-737 sensitivity (apoptosis by FACS),"T-ALL cell lines [2]; Fbw7-deficient HPB-ALL cells, FIG. 12e",significant increase in the induction of apoptosis; also recorded: restores ABT-737 sensitivity
